Results taken from patent US20090054417A1, “COMPOUNDS AND COMPOSITIONS AS MODULATORS OF STEROID HORMONE NUCLEAR RECEPTORS” (IRM LLC, priority 2004, published 2009).
Values belong to the compound of their own block, whether it stands above or below them.

Tests used:
Assay type in all cases: cell-based
MR = target: T1, MR (Homo sapiens, UniProt P08235); test: Functional assay of mineralocorticoid receptor antagonism (mammalian two hybrid luciferase reporter, 293T cells, aldosterone-stimulated); settings: antagonism of MR trans-activation induced by 0.4 nM aldosterone
T1 construct: expressed in transfected cells; host or cells: 293T cells
T1 sequence (P08235 672-984): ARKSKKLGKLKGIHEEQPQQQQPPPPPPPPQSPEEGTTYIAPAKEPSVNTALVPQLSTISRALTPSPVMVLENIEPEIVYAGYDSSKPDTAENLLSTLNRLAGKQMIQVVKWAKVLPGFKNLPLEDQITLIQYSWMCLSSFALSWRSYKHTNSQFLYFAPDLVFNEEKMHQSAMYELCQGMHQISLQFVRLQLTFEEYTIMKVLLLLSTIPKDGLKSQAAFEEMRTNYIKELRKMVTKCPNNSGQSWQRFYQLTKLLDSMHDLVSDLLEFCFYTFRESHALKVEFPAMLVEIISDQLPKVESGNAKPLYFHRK
Method: The MR antagonist activity of the compounds is determined in a mammalian two hybrid reporter system. The N-terminus of MR (MR-NT, sequence coding amino acid 1-597) is fused to the activation domain of the VP16 gene. The ligand binding domain of MR (MR-LBD, sequence encoding amino acid 672-984) is fused to the DNA binding domain of the yeast Gal4 gene. The MR gene is cloned from a human kidney cDNA library with PCR.
The assay is performed in 384 well plates. Briefly, 293T cells (ATCC) are transfected with expression vectors for Gal-4-MR-LBD and VP16-MR NT, and a luciferase reporter vector containing Gal4 binding sequence (pG5-Luc). Cells are plated in 384 well plates immediately after transfection (approximately 3×10^4 cells/well in 50 μl medium). The medium is supplemented with 3% charcoal-dextran treated fetal bovine serum (Hyclone). Twenty four hours after transfection, compounds prepared in DMSO are transferred to the cells. The cells are then stimulated with 0.4 nM final concentration of aldosterone (Acros) and incubated at 37° C. for another 24 hours before the luciferase activity is assayed with 20 μl of Bright-Glo (Promega) using a luminometer (CLIPR). The expression of luciferase is used as an indicator of aldosterone-induced MR trans-activation. Each compound is tested in duplicates with 12-concentration titration. IC50 values (defined as the concentration of test compound required to antagonize 50% of aldosterone-induced MR activity) are determined from the dose-response curve.

GR = target: T2, GR (Homo sapiens, UniProt P04150); test: Functional assay of glucocorticoid receptor antagonism (Gal4-GR-LBD luciferase reporter, COS-7 cells, dexamethasone-stimulated); settings: antagonism of GR trans-activation induced by 10 nM dexamethasone
T2 construct: expressed in transfected cells; host or cells: COS-7 cells
T2 sequence (P04150 541-777): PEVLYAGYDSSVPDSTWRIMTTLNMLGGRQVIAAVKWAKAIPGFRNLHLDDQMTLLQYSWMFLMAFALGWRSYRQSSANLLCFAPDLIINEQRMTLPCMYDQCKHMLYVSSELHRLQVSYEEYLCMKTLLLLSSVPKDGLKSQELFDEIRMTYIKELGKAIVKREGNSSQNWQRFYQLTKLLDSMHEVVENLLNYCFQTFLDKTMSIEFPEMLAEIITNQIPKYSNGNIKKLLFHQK
Method: The GR antagonist activity of the compounds is determined in a mammalian two hybrid reporter system. The ligand binding domain of GR (GR-LBD, sequence encoding amino acid 541-778) is fused to the DNA binding domain of the yeast Gal4 gene. The GR gene is cloned from a human lung cDNA library with PCR.
The assay is performed in 384 well plates: COS-7 cells (ATCC) are transfected with expression vectors for Gal-4-GR-LBD and a luciferase reporter vector containing Gal4 binding sequence (pG5-Luc). Cells are plated in 384 well plates immediately after transfection (approximately 8000 cells/well in 50 μl medium). The medium is supplemented with 3% charcoal-dextran treated fetal bovine serum (Hyclone). Twenty four hours after transfection, compounds prepared in DMSO are transferred to the cells. The cells are then stimulated with 10 nM final concentration of dexamethasone (Sigma) and incubated at 37° C. for another 24 hours before the luciferase activity is assayed with 20 μl of Bright-Glo (Promega) using a luminometer (CLIPR). The expression of luciferase is used as an indicator of dexamethasone-induced GR trans-activation. Each compound is tested in duplicates with a 12-concentration titration. IC50 values (defined as the concentration of test compound required to antagonize 50% of dexamethasone-induced GR activity) are determined from the dose-response curve.

PR = target: T3, PR (Homo sapiens, UniProt P06401); test: Functional assay of progesterone receptor antagonism (progesterone-induced alkaline phosphatase activity in T-47D cells); settings: antagonism of PR activity induced by 3 nM progesterone
T3 sequence (P06401 1-933): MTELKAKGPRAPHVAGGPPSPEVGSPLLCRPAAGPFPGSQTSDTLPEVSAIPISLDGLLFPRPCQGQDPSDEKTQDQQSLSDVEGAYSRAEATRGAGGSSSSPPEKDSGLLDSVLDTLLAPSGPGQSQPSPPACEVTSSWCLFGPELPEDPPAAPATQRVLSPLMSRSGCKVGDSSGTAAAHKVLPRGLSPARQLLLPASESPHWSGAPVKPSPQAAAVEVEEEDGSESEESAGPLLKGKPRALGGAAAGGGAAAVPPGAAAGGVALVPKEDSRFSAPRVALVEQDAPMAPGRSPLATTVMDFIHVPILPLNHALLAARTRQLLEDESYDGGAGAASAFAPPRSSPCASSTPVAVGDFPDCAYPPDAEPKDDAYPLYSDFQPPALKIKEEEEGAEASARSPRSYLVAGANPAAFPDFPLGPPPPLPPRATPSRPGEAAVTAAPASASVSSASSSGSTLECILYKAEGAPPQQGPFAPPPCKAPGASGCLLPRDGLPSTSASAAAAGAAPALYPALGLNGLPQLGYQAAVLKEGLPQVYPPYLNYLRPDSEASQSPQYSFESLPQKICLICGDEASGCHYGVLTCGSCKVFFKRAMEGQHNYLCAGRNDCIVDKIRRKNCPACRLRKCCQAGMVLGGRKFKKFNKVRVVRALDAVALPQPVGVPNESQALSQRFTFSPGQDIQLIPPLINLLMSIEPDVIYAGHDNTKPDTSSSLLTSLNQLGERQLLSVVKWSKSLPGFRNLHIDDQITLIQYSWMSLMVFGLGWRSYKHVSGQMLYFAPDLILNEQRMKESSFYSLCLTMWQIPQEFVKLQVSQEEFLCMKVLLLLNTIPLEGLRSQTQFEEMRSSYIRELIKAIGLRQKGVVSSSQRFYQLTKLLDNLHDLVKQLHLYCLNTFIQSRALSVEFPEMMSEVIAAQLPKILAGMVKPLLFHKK
Method: The PR antagonist activity of the compounds is determined by progesterone-induced alkaline phosphatase activity in the T-47D cell line (ATCC). In the T-47D breast cancer cells, progesterone specifically induces de novo synthesis of a membrane-associated alkaline phosphatase enzyme in a time and dose-dependent manner (Di Lorenzo et al., Cancer Research, 51: 4470-4475 (1991)). The alkaline phosphatase enzymatic activity can be measured with a chemiluminescent substrate, such as CSPD® (Applied Biosystems). The assay is performed in 384 well plates. Briefly, T-47D cells are plated in 384 well plates at a density of approximately 2.5×10^4 cells/well in 50 μl medium supplemented with 10% fetal bovine serum. Twenty four hours later, the medium is aspirated. New medium that is free of phenol red and serum is added to the cells. Compounds prepared in DMSO are transferred to the cells. The cells are then stimulated with 3 nM final concentration of progesterone (Sigma) and incubated at 37° C. for another 24 hours before the alkaline phosphatase is assayed with 25 μl of CSPD® (Applied Biosystems) using a luminometer (CLIPR). The expression of alkaline phosphatase is used as an indicator of progesterone-induced PR trans-activation. Each compound is tested in duplicates with a 12-concentration titration. […]

AR = target: T4, AR (Homo sapiens, UniProt P10275); test: Functional assay of androgen receptor antagonism (MMTV luciferase reporter in MDA-kb2 cells, dihydrotestosterone-stimulated); settings: antagonism of AR trans-activation induced by 0.3 nM dihydrotestosterone
T4 sequence (P10275 1-920 Q868H): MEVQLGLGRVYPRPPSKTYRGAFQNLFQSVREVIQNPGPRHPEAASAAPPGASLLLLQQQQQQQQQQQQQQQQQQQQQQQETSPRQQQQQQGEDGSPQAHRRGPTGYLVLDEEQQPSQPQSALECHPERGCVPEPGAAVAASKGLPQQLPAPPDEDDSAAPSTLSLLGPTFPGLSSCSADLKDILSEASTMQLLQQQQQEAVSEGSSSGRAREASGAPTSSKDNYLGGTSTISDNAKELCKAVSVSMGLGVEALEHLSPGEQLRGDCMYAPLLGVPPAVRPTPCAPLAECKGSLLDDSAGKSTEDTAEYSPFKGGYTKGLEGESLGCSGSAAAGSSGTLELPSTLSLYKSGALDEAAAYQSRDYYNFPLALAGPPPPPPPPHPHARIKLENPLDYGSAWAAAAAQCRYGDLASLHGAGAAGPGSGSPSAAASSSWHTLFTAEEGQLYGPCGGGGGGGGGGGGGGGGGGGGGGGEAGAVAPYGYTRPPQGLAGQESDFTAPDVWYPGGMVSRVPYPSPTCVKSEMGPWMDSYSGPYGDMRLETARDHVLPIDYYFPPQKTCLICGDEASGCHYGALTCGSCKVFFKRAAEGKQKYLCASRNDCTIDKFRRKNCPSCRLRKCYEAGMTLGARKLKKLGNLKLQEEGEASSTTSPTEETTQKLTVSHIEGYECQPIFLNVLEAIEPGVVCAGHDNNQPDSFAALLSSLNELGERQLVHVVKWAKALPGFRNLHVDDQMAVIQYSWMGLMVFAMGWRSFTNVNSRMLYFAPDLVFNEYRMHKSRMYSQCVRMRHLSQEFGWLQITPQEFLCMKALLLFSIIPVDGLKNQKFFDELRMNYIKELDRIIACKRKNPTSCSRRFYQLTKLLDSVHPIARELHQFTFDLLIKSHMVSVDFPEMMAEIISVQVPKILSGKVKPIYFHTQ
Method: The AR antagonist activity of the compounds is determined with the MDA-Kb2 cell line (ATCC), which stably expresses the MMTV luciferase reporter. The MMTV promoter is a mouse mammary tumor virus promoter that contains androgen receptor response elements. […] Upon stimulation with AR ligands, such as dihydrotestosterone, the MMTV luciferase reporter can be activated.
The assay is performed in 384 well plates. Briefly, MDA-kb2 cells are plated in 384 well plates at a density of approximately 2.4×10^4 cells/well in 50 μl medium. The medium is supplemented with 5% charcoal-dextran treated fetal bovine serum (Hyclone). Twenty four hours later, compounds prepared in DMSO are transferred to the cells. The cells are then stimulated with 0.3 nM final concentration of dihydrotestosterone (Sigma) and incubated at 37° C. for another 24 hours before the luciferase activity is assayed with 20 μl of Bright-Glo (Promega) using a luminometer (CLIPR). The expression of luciferase is used as an indicator of dihydrotestosterone-induced AR trans-activation. Each compound is tested in duplicates with a 12-concentration titration. IC50 values (defined as the concentration of test compound required to antagonize 50% of dihydrotestosterone-induced AR activity) are determined from the dose-response curve.

IC50 (MR): 162 nM
IC50 (GR): > 10000 nM
IC50 (PR): > 20000 nM
IC50 (AR): 52 nM
SMILES: Cc1c(-c2csc(-c3ccccc3C(F)(F)F)n2)ccc2c1NC(=O)CO2 [5-Methyl-6-[2-(2-trifluoromethyl-phenyl)-thiazol-4-yl]-4H-benzo[1,4]oxazin-3-one]

IC50 (MR): 47 nM
IC50 (PR): 22 nM
SMILES: Cc1cccc(-c2ccc3c(c2C)NC(=O)CO3)c1 [5-Methyl-6-m-tolyl-4H-benzo[1,4]oxazin-3-one]

Continued, compound first:

SMILES: CC(=O)Oc1ccc(CCc2ccc3c(c2)NC(=O)CO3)c(C)c1 [acetic acid 3-methyl-4-[2-(3-oxo-3,4-dihydro-2H-benzo[1,4]oxazin-6-yl)-ethyl]-phenyl ester]
IC50 (MR): < 2 nM

SMILES: CC(=O)Oc1ccc(CCc2cc(C)c3c(c2)NC(=O)CO3)c(C)c1 [Acetic acid 3-methyl-4-[2-(8-methyl-3-oxo-3,4-dihydro-2H-benzo[1,4]oxazin-6-yl)-ethyl]-phenyl ester]
IC50 (MR): 1.3 nM
IC50 (GR): 210 nM

SMILES: Cc1ccccc1/C=C/c1ccc2c(c1)NC(=O)CO2 [6-(2-o-tolyl-vinyl)-4H-benzo[1,4]oxazin-3-one]
IC50 (MR): 54 nM
IC50 (AR): 138 nM
